According to US5506354A, “Imidazolylpiperazinyl steroids” (The Upjohn Company, priority 1992, dated 1996):
Structures can show the parent of a compound that is named as a salt.

Tests used:
[1] = test system: conjugated diene formation; test: Conjugated Diene Formation Assay (rat brain synaptosomes); type: biochemical; conditions: 100 μM (or less) of drug; active = inhibition by 50% or more
Text: The formation of conjugated dienes as assayed by Braughler, J. Neurochem., 44, 1282 (1985), Bucher, Fund. Applied Tox., 3, 222 (1983) and Tein, Arch. Biochem. Biophy., 216, 142 (1982) is a standard pharmacological laboratory procedure useful for identifying compounds which inhibit lipid peroxidation. Since lipid peroxidation is involved in the pathophysiology of central nervous system trauma, compounds which inhibit conjugated diene formation are useful in treating the conditions listed below.
44, 1282 (1985). Synaptosomal suspension (10 μl) is added to 1 ml of physiological (normal) saline containing 1% Lubrol PX (Sigma Chemical Co. St. Louis, Mo.), 100 μM hydrogen peroxide and 100 μM (or less) of the drug to be tested prepared in either absolute ethanol or water depending upon solubility. The reaction is started by the rapid addition of 200 μM ferrous ammonium sulfate prepared in argon-purged water. The sample is rapidly mixed and the change in absorbence at 232 nm is followed in a Gifford Response Spectrophotometer equipped with a rapid sampler. Due to the rapidity of the reaction, rapid addition of the iron, rapid mixing and sampling are obligatory to the accuracy of the assay. For best results absorbence readings of one/sec should be started within 5 sec following the addition of iron. The initial linear rate of absorbence change during the first 30 sec of reaction are compared with the rate of a reaction containing all reagents except synaptosomes. The difference in rates is the rate of conjugated diene formation. Rates with drug are compared to rates obtained in the absence of drug and the % inhibition is calculated. A compound that inhibits conjugated diene formation by 50% or more is considered to be "active".

[2] = test system: angiogenesis; test: Chick embryo assay of Folkman (inhibition of angiogenesis / tumor growth); type: in vivo; conditions: 50 μg/10 μl in the presence of heparin
Procedure: According to this procedure compounds which are considered to be "active" (i.e. antiangiogenic) give an avascular zone of 4 mm or greater in some embryos when tested at 50 μg/10 μl in the presence of 50 μg/10μ of heparin.

[3] = test system: MDA formation; test: Malonyldialdehyde (MDA) Formation Assay (rat brain synaptosomes); type: biochemical; conditions: 10 min at 37°, pH 7.0; active = 50% or more at 200 μM or less
Procedure: Since lipid peroxidation is involved in the pathophysiology of center nervous system trauma, compounds which inhibit MDA formation are useful in treating the conditions listed below.
While not necessary to determine MDA formation, the above assays have been modified as follows: rat brain synaptosomes are prepared as described in the Example about the conjugated diene assay, except that the final wash of the synaptosomes and final suspension are in physiological (normal) saline in which the pH has been adjusted to 7.0. The synaptosomes are incubated for 10 min at 37° in physiological (normal) saline pH 7.0 (total volume=100 ul) containing; 10 ul synaptosomal suspension, 10% DMSO plus or minus drug, 150 uM Fe^+++ and 50 uM Fe++. The incubation is started by the rapid addition of iron to the otherwise complete reaction. The iron solutions are prepared fresh as ferric chloride and ferrous ammonium sulfate in argon-purged water. Following the 10 min incubation, the reaction is stopped by the addition of 500 ul ice-cold 12% trichloroacetic acid prepared in 0.5N hydrochloric acid. Water (300 ul) is then added along with 100 ul of freshly prepared thiobarbituric acid (3.3% in 0.5N sodium hydroxide) and 10 ul of 5 mM desferrioxamine. The sample is then heated in a boiling water bath for 20 minutes. The samples are cooled and centrifuged for 15 minutes at 1500×g and the absorbence of the supernatant fraction is read at 532 nm. The % inhibition of MDA formation is calculated by dividing the absorbance of sample containing drug by the absorbence of samples incubated without drug. Reaction blanks are samples incubated in the absence of iron. A compound that inhibits MDA formation by 50% or more at a concentration of 200 μM or less is considered "active".

[4] = test system: interleukin-1; test: Inhibition of interleukin-1 induced T cell proliferation; type: cell-based; conditions: for inhibition of interleukin 1 (activity in words): active = greater than 30% at 10^-6 M
Text: The inhibition of interleukin-1 induced T cell proliferation assay, Proc. Nat. […] Since people with arthritis make excess interleukin 1, compounds which inhibit the activity of interleukin 1 are useful in the treatment of arthritis. According to this procedure compounds which inhibit the activity of interleukin 1 greater that 30% at 10^-6 M are considered to be "active".

[5] = test system: mucous secretion; test: Inhibition of mucous secretion assay of Johnson; conditions: for inhibition of mucous secretion (activity in words): induced mucous secretions; for preferred mucous inhibitors by the test results (in words): test results disclose
Text: According to this procedure compounds which inhibit or block enhancement of induced mucous secretions when tested are considered to be "active".

[6] = test system: arachidonic acid; test: Arachidonic Acid Antagonism Assay (AAAA), LD50 of sodium arachidonate; type: in vivo, Charles River male CF-1 mice; conditions: for arachidonic acid antagonism (activity in words): test compound IV 15 min before sodium arachidonate, LD50 outside 95% confidence interval of control
Procedure: Since these metabolites contribute to the pathological problems associated with stroke, spinal trauma and head injury, compounds which antagonize arachidonic acid are useful in treating stroke, spinal trauma and head injury.
While not necessary to determine arachidonic acid antagonism, the above assay has been modified as follows: Charles River male CF-1 mice weighing 18-22 g are treated IV with the test compound dissolved in 1.0% Tween-80 and 0.1% hydrochloric acid in distilled water, 0.2 ml total volume. Fifteen minutes later sodium arachidonate (90% pure) in physiological (normal) saline is injected into the tail vein. The LD50 is measured using the Spearman-Karber method with a log dose interval of 0.05 (N=6). Compounds which elevate the LD50 outside of the 95% confidence interval of the control LD50 are considered to be "active".

CC(CN1CCN(c2cc(N3CCCC3)nc(N3CCCC3)n2)CC1)[C@H]1CC[C@H]2[C@@H]3CCC4=CC(=O)C=C[C@]4(C)[C@H]3CC[C@]12C.CS(=O)(=O)O.O (some centres unmarked) [Example 112, 21-[4-(2,6-Bis(1-pyrrolidinyl)-4-pyrimidinyl)-1-piperazinyl]-20-methylpregna-1,4-dien-3-one methanesulfonate, hydrate]
inhibition of conjugated diene formation (activity in words) [1]: demonstrate such activity

C[C@@H]1C[C@H]2[C@@H]3CCC4=CC(=O)C=C[C@]4(C)C3=CC[C@]2(C)[C@H]1C(=O)CN1CCN(c2cc(N3CCOCC3)nc(N3CCOCC3)n2)CC1 [Example 86, 16α-methyl-21-[4-[2,6-bis(4-morpholino)-4-pyrimidinyl]-1-piperazinyl]-pregna-1,4,9(11)-triene-3,20-dione]
inhibition of angiogenesis (activity in words) [2]: demonstrate inhibition of angiogenesis | inhibition of MDA formation (activity in words) [3]: demonstrate such activity | inhibition of interleukin 1 (activity in words) [4]: demonstrate inhibition of interleukin 1 | % Inhibition at 10^-6 M ([4]; interleukin 1, 10^-6 M): 84% | inhibition of conjugated diene formation (activity in words) [1]: demonstrate such activity

C[C@]12C=CC(=O)C=C1CC[C@@H]1C2=CC[C@]2(C)[C@@H](C(=O)CN3CCN(c4cc(N5CCCC5)nc(N5CCCC5)n4)CC3)CC[C@@H]12.Cl.Cl [Example 111, 21-[4-(2,6-Bis(1-pyrrolidinyl)-4-pyrimidinyl)-1-piperazinyl]pregna-1,4,9(11)-triene-3,20-dione dihydrochloride]
inhibition of conjugated diene formation (activity in words) [1]: demonstrate such activity

CS(=O)(=O)O.CS(=O)(=O)O.C[C@@H]1C[C@H]2[C@@H]3CCC4=CC(=O)C=C[C@]4(C)C3=CC[C@]2(C)[C@H]1C(=O)CN1CCN(c2cc(N3CCCC3)nc(N3CCCC3)n2)CC1 [Example 83, 16α-Methyl-21-[4-(2,6-bis(1-pyrrolidinyl)-4-pyrimidinyl]-1-piperazinyl]pregna-1,4,9(11)-triene-3,20-dione dimethane-sulfonate]
inhibition of angiogenesis (activity in words) [2]: demonstrate inhibition of angiogenesis | inhibition of MDA formation (activity in words) [3]: demonstrate such activity | inhibition of mucous secretion (activity in words) [5]: demonstrate such activity | preferred mucous inhibitors by the test results (in words) [5]: preferred mucous inhibitors | inhibition of interleukin 1 (activity in words) [4]: demonstrate inhibition of interleukin 1 | inhibition of conjugated diene formation (activity in words) [1]: demonstrate such activity

C[C@@H]1C[C@H]2[C@@H]3CCC4=CC(=O)C=C[C@]4(C)[C@H]3[C@H](O)C[C@]2(C)[C@H]1C(=O)CN1CCN(c2cc(N3CCCC3)nc(N3CCCC3)n2)CC1 [Example 84, 11α-hydroxy-16α-methyl-21-[4-[2,6-bis(1-pyrrolidinyl)-4-pyrimidinyl]-1-piperazinyl]pregna-1,4-diene 3,20-dione]
inhibition of interleukin 1 (activity in words) [4]: demonstrate inhibition of interleukin 1 | inhibition of conjugated diene formation (activity in words) [1]: demonstrate such activity

C[C@]12CCC(=O)C=C1CC[C@@H]1C2=CC[C@@]2(C)[C@H]1CC[C@]2(O)C(=O)CN1CCN(c2cc(N3CCOCC3)nc(N3CCOCC3)n2)CC1 [Example 105, 21-[4-(2,6-Bis(4-morpholino)-4-pyrimidinyl)-1-piperazinyl]-17α-hydroxypregna-4,9(11)-diene-3,20-dione dihydrochloride, hydrate]
inhibition of angiogenesis (activity in words) [2]: demonstrate inhibition of angiogenesis | inhibition of mucous secretion (activity in words) [5]: demonstrate such activity | preferred mucous inhibitors by the test results (in words) [5]: preferred mucous inhibitors | inhibition of interleukin 1 (activity in words) [4]: demonstrate inhibition of interleukin 1

CS(=O)(=O)O.C[C@]12CCC(=O)C=C1CC[C@@H]1C2=CC[C@@]2(C)[C@H]1CC[C@]2(O)C(=O)CN1CCN(c2ccccn2)CC1 [Example 2, 17α-Hydroxy-21-[4-(2-pyridinyl)-1-piperazinyl]pregna-4,9(11)-diene-3,20-dione methanesulfonate]
arachidonic acid antagonism (activity in words) [6]: demonstrate arachidonic acid antagonism | % of Embryos with 4 mm or Greater Avascular Zone [2]: 85% | inhibition of mucous secretion (activity in words) [5]: demonstrate such activity | preferred mucous inhibitors by the test results (in words) [5]: preferred mucous inhibitors | inhibition of conjugated diene formation (activity in words) [1]: demonstrate such activity

C[C@H]1C[C@@H]2C(=CC[C@@]3(C)[C@H]2CC[C@]3(O)C(=O)CN2CCN(c3cc(N4CCCC4)nc(N4CCCC4)n3)CC2)[C@@]2(C)C=CC(=O)C=C12 [Example 47, 17α-hydroxy-6α-methyl-21-[4-[2,6-bis(1-pyrrolidinyl)-4-pyrimidinyl]-1-piperazinyl]pregna-1,4,9(11)-triene-3,20-dione (E)-2-butenodioate salt]
arachidonic acid antagonism (activity in words) [6]: demonstrate arachidonic acid antagonism | inhibition of MDA formation (activity in words) [3]: demonstrate such activity | inhibition of interleukin 1 (activity in words) [4]: demonstrate inhibition of interleukin 1 | inhibition of conjugated diene formation (activity in words) [1]: demonstrate such activity

C[C@]12CCC(=O)C=C1CC[C@@H]1C2=CC[C@@]2(C)[C@H]1CC[C@]2(O)C(=O)CN1CCN(c2cccc(N3CCCC3)n2)CC1 [Example 62, 17α-hydroxy-21-[4-[6-(1-pyrrolidinyl)-2-pyridinyl]-1-piperazinyl] pregna-4,9(11)-diene-3,20-dione (E)-2-butenedioate (1:1) salt]
% of Control LD50 100 mg/kg ([6]; 100 mg/kg, test compound IV): 138% | arachidonic acid antagonism (activity in words) [6]: demonstrate arachidonic acid antagonism | inhibition of MDA formation (activity in words) [3]: demonstrate such activity

CCN(CC)c1cc(N2CCN(CC(=O)[C@@]3(O)CC[C@H]4[C@@H]5CCC6=CC(=O)CC[C@]6(C)C5=CC[C@@]43C)CC2)nc(N)n1 [Example 4, 21-[4-[2-Amino-6-(diethylamino)-4-pyrimidinyl]-1-piperazinyl]-17α-hydroxypregna-4,9(11)-diene-3,20-dione]
arachidonic acid antagonism (activity in words) [6]: demonstrate arachidonic acid antagonism | inhibition of mucous secretion (activity in words) [5]: demonstrate such activity | inhibition of conjugated diene formation (activity in words) [1]: demonstrate such activity

C[C@]12CCC(=O)C=C1CC[C@@H]1C2=CC[C@@]2(C)[C@H]1CC[C@]2(O)C(=O)CN1CCC(O)(c2ccc(C(F)(F)F)cc2)CC1 [Example 5, 17α-Hydroxy-21-[4-hydroxy-4-(4-trifluoromethyl)-phenyl-1-piperidinyl]-pregna-4,9(11)-diene-3,20-dione]
inhibition of conjugated diene formation (activity in words) [1]: demonstrate such activity
